According to patent US7008953B2, “3, 5 Disubstituted indazole compounds, pharmaceutical compositions, and methods for mediating or inhibiting cell proliferation” (Agouron Pharmaceuticals, Inc., priority 2003, dated 2006):

Columns and labels:
Format in all cases: biochemical
Details in all cases: method of Davies et al.
CDK2/A = CDK2/A (Homo sapiens, UniProt P24941); experiment: Panel of protein kinases: CDK2/A
Description: (§1) The compounds of the present invention were screened against a large panel of protein kinase to determine inhibition activity for CDK as against a variety of protein kinases. The assay was conducted using methods and materials described by Davies, S et al. Specificity and Mechanism of Action of Some Commonly Used Protein Kinase Inhibitors, Biochem J. 351, 95–105 (2000), the contents of which are herein incorporated by reference. The compounds were screened against a panel of protein kinases which include AMP-activiated protein kinase (AMPK), checkpoint kinase (CHK1), casein kinases 1 and 2 (CK1 and CK2), cytoplasmic tyrosine kinase (CSK), dual serine/threonine/tyrosine kinase (DYRK1A), glycogen synthase kinase 3 (GSK3B), c-Jun N-terminal kinase (JNK), lymphocyte kinase (LCK), mitogen-activated protein kinases 2, K-1a, K2 (MAPK2, MAPKAP-K1a, and MAPKAP-K2), MAPK kinase (MKK1, also called MEK), mitogen and stress-activated protein kinase 1 (MSK1), never-in-mitosis kinase 6 (NEK6), p70 ribosomal protein S6 kinase (P70s6K1), 3-phosphoinositide-dependent protein kinase 1 (PDK1), phosphorylase kinase (PHK), protein kinase A (PKA), protein kinase B (PKB, also called Akt), protein kinase C (PKCa), p38-regulated/activated kinase (PRAK), Rho-dependent protein kinase (ROCK-II), stress-activated protein kinase 2a, 2b, 3 and 4 (SAPK-2A or p38, SAPK-2b or p38β2, SAPK3 or p38γ, SAPK4 or p38δ, respectively), and serum- and glucocorticoid-induced kinase (SGK). Compound activity was grouped into categories of weak (<50%), moderate (50–75%) and strong inhibition (>75%).

checkpoint kinase (CHK1) = target: T1, checkpoint kinase (CHK1) (Homo sapiens, UniProt O14757); experiment: Panel of protein kinases: CHK1
T1 sequence (O14757 1-476): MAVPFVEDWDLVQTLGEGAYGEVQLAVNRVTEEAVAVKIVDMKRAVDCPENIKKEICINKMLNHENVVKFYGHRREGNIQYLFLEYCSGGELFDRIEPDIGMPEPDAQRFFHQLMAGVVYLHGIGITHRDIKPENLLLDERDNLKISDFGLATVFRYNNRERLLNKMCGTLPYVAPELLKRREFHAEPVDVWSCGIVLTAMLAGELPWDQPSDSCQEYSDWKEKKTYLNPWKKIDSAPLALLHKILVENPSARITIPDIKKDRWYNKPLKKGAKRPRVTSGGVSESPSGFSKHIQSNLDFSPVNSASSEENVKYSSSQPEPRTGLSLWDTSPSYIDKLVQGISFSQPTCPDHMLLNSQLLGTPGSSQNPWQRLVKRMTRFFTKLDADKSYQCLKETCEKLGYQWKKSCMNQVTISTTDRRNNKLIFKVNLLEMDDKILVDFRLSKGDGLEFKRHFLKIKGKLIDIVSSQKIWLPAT
Description: as §1

[1] = target: cytoplasmic tyrosine kinase (CSK) (Homo sapiens, UniProt P41240); experiment: Panel of protein kinases: CSK
Sequence of cytoplasmic tyrosine kinase (CSK) (P41240 whole entry, species assumed): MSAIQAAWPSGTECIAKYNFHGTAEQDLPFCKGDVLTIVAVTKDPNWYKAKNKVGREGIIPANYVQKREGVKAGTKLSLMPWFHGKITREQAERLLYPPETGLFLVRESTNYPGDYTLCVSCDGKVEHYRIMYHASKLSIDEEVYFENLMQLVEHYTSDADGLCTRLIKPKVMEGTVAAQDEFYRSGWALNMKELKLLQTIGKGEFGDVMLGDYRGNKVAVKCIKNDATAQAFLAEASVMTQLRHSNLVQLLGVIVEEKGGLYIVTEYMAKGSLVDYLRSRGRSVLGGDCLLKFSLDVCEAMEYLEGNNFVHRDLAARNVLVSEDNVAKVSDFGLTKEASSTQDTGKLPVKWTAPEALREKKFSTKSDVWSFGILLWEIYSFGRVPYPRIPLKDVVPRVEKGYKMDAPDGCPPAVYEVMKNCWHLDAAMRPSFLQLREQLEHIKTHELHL
Description: as §1

[2] = target: dual serine/threonine/tyrosine kinase (DYRK1A) (Homo sapiens, UniProt Q13627); experiment: Panel of protein kinases: DYRK1A
Description: as §1

[3] = target: c-Jun N-terminal kinase (JNK) (Homo sapiens, UniProt P45983); experiment: Panel of protein kinases: JNK
Sequence of c-Jun N-terminal kinase (JNK) (P45983 whole entry): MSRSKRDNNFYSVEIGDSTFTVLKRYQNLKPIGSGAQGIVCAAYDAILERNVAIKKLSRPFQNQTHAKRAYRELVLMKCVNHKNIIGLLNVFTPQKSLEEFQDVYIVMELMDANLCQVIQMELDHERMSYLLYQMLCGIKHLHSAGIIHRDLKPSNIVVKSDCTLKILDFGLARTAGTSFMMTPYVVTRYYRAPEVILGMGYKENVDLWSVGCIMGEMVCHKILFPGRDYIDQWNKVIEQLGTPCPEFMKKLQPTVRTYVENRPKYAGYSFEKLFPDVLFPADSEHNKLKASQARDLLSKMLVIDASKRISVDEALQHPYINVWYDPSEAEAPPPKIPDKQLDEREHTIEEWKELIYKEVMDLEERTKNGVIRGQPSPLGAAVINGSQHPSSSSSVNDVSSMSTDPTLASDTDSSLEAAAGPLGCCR
Description: as §1

lymphocyte kinase (LCK) = lymphocyte kinase (LCK) (Homo sapiens, UniProt P06239); experiment: Panel of protein kinases: LCK
Sequence of lymphocyte kinase (LCK) (P06239 whole entry, species assumed): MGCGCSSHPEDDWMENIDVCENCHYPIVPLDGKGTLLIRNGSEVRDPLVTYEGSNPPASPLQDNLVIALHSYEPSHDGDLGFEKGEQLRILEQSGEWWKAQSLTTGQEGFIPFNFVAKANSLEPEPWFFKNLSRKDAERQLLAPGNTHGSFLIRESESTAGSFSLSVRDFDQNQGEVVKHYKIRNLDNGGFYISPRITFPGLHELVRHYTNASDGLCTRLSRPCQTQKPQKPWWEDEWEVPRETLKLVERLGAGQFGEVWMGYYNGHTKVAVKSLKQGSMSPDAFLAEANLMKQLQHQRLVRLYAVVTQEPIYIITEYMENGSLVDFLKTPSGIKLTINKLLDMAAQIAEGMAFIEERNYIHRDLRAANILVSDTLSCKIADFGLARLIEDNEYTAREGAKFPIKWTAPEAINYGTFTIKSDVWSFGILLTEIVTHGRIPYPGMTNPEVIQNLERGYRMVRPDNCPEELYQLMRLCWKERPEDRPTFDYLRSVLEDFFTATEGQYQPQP
Description: as §1

[4] = target: mitogen-activated protein kinase 2 (MAPK2) (Homo sapiens, UniProt P28482); experiment: Panel of protein kinases: MAPK2
Sequence of mitogen-activated protein kinase 2 (MAPK2) (P28482 whole entry): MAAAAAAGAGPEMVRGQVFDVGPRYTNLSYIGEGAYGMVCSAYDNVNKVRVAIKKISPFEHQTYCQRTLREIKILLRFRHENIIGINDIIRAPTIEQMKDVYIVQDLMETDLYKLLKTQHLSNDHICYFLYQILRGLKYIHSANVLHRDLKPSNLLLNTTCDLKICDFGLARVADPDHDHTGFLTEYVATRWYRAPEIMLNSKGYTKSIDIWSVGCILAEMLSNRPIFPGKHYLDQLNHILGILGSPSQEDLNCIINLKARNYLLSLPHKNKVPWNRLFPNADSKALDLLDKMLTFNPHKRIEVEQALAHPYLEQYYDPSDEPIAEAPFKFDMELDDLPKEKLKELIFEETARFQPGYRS
Description: as §1

[5] = target: mitogen and stress-activated protein kinase 1 (MSK1) (Homo sapiens, UniProt O75582); experiment: Panel of protein kinases: MSK1
Sequence of mitogen and stress-activated protein kinase 1 (MSK1) (O75582 whole entry, species assumed): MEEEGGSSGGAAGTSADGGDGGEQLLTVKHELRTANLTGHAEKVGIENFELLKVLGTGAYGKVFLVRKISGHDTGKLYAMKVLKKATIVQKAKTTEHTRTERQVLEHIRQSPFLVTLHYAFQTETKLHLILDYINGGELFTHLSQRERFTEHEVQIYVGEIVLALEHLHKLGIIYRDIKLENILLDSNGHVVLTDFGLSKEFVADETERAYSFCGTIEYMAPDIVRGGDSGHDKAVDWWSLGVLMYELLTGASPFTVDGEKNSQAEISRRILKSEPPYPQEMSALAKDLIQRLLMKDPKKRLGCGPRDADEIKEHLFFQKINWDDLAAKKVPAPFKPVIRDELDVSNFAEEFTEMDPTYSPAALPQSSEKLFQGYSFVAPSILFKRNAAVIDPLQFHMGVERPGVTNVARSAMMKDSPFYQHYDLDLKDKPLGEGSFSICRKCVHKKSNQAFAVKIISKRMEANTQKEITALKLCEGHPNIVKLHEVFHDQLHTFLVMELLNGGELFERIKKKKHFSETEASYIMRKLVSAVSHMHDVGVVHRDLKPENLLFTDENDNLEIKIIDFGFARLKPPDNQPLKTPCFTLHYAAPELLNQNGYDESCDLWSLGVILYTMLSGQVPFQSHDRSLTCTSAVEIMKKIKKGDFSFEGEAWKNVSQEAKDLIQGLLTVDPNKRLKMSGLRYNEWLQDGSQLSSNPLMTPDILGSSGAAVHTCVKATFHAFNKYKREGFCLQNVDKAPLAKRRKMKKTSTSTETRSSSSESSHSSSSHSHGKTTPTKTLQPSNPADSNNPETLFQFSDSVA
Description: as §1

[6] = target: never-in-mitosis kinase 6 (NEK6) (Homo sapiens, UniProt Q9HC98); experiment: Panel of protein kinases: NEK6
Sequence of never-in-mitosis kinase 6 (NEK6) (Q9HC98 whole entry, species assumed): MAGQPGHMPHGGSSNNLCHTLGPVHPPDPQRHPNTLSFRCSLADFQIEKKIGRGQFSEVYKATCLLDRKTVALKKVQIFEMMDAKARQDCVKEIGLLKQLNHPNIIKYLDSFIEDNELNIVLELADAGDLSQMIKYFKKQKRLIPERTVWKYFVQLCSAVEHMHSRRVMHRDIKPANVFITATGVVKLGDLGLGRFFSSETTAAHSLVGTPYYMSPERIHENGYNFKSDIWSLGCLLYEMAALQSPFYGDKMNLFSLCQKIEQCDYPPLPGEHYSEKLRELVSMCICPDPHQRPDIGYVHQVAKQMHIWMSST
Description: as §1

protein kinase A (PKA) = protein kinase A (PKA) (Bos taurus, UniProt P00517); experiment: Panel of protein kinases: PKA
Description: as §1

[7] = target: stress-activated protein kinase 2b (SAPK-2b or p38β2) (Homo sapiens, UniProt Q15759); experiment: Panel of protein kinases: SAPK-2b
Sequence of stress-activated protein kinase 2b (SAPK-2b or p38β2) (Q15759 whole entry): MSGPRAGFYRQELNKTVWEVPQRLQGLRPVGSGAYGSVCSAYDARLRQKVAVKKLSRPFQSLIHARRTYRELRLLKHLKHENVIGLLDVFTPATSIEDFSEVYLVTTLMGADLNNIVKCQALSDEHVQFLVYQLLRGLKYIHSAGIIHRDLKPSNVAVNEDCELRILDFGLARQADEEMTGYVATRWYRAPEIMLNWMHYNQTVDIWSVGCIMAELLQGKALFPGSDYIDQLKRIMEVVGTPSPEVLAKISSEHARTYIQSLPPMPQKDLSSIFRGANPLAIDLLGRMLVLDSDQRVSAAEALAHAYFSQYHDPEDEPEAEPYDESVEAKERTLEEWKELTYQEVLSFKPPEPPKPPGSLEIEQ
Description: as §1

[8] = target: T2, stress-activated protein kinase 3 (SAPK3 or p38γ) (Homo sapiens, UniProt P53778); experiment: Panel of protein kinases: SAPK3
T2 sequence (P53778 1-367): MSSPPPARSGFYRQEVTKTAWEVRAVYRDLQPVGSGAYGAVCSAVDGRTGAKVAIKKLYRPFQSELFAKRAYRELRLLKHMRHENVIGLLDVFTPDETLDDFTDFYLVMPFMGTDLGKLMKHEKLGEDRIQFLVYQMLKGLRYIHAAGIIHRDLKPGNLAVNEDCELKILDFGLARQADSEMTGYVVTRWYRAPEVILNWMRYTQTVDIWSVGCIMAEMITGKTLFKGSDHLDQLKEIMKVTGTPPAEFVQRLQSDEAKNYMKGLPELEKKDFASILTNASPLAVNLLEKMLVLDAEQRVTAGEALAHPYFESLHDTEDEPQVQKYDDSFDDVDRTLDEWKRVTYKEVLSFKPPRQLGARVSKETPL
Description: as §1

[9] = target: T3, stress-activated protein kinase 4 (SAPK4 or p38δ) (Homo sapiens, UniProt O15264); experiment: Panel of protein kinases: SAPK4
T3 sequence (O15264 1-365): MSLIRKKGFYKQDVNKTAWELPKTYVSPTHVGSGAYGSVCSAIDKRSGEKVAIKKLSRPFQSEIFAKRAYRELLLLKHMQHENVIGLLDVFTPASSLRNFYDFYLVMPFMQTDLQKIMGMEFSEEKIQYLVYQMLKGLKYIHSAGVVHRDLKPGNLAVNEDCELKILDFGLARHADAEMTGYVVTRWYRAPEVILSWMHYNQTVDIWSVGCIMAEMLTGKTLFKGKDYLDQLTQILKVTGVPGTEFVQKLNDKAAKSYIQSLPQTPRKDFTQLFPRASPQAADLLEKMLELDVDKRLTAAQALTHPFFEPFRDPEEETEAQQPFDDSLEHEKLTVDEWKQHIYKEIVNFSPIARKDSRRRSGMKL
Description: as §1

Structure (SMILES)	Kinase CDK2/A inhibition (CDK2/A)	Kinase CHK1 inhibition (checkpoint kinase (CHK1))	Kinase CSK inhibition [1]	Kinase DYRK1A inhibition [2]	Kinase JNK inhibition [3]	Kinase LCK inhibition (lymphocyte kinase (LCK))	Kinase MAPK2 inhibition [4]	Kinase MSK1 inhibition [5]	Kinase NEK6 inhibition [6]	Kinase PKA inhibition (protein kinase A (PKA))	Kinase SAPK-2b inhibition [7]	Kinase SAPK3 inhibition [8]	Kinase SAPK4 inhibition [9]
CCNCc1cncc(-c2ccc3[nH]nc(-c4nc5ccccc5[nH]4)c3c2)c1C [A]	++ (Strong inhibition >75%)	+ (Moderate inhibition 50–75%)	− (Weak inhibition <50%)	++ (Strong inhibition >75%)	− (Weak inhibition <50%)	++ (Strong inhibition >75%)	− (Weak inhibition <50%)	− (Weak inhibition <50%)	− (Weak inhibition <50%)	++ (Strong inhibition >75%)	− (Weak inhibition <50%)	− (Weak inhibition <50%)	− (Weak inhibition <50%)
CCNCc1cncc(-c2ccc3[nH]nc(-c4nc5c(C(=O)NC)cccc5[nH]4)c3c2)c1C [B]	++ (Strong inhibition >75%)	+ (Moderate inhibition 50–75%)	− (Weak inhibition <50%)	++ (Strong inhibition >75%)	− (Weak inhibition <50%)	++ (Strong inhibition >75%)	− (Weak inhibition <50%)	− (Weak inhibition <50%)	− (Weak inhibition <50%)	++ (Strong inhibition >75%)	− (Weak inhibition <50%)	− (Weak inhibition <50%)	− (Weak inhibition <50%)
CCNCc1cncc(-c2ccc3[nH]nc(-c4nc5c(SC)cccc5[nH]4)c3c2)c1C [C]	++ (Strong inhibition >75%)	− (Weak inhibition <50%)	− (Weak inhibition <50%)	++ (Strong inhibition >75%)	− (Weak inhibition <50%)	+ (Moderate inhibition 50–75%)	− (Weak inhibition <50%)	− (Weak inhibition <50%)	− (Weak inhibition <50%)	+ (Moderate inhibition 50–75%)	− (Weak inhibition <50%)	− (Weak inhibition <50%)	− (Weak inhibition <50%)
CCNCc1cncc(-c2ccc3[nH]nc(-c4nc5c(NC(C)=O)cccc5[nH]4)c3c2)c1C [D]	++ (Strong inhibition >75%)	− (Weak inhibition <50%)	− (Weak inhibition <50%)	++ (Strong inhibition >75%)	− (Weak inhibition <50%)	− (Weak inhibition <50%)	− (Weak inhibition <50%)	− (Weak inhibition <50%)	− (Weak inhibition <50%)	− (Weak inhibition <50%)	− (Weak inhibition <50%)	− (Weak inhibition <50%)	− (Weak inhibition <50%)
CCNCc1cncc(-c2ccc3[nH]nc(-c4nc5c(F)cc(F)cc5[nH]4)c3c2)c1C [Example 1, {5-[3-(4,6-Difluoro-1H-benzoimidazol-2-yl)-1H-indazol-5-yl]-4-methyl-pyridin-3-ylmethyl}-ethyl-amine]	++ (Strong inhibition >75%)	− (Weak inhibition <50%)	− (Weak inhibition <50%)	++ (Strong inhibition >75%)	− (Weak inhibition <50%)	+ (Moderate inhibition 50–75%)	− (Weak inhibition <50%)	− (Weak inhibition <50%)	− (Weak inhibition <50%)	− (Weak inhibition <50%)	− (Weak inhibition <50%)	− (Weak inhibition <50%)	− (Weak inhibition <50%)
CCNCc1cncc(-c2ccc3[nH]nc(-c4nc5cc(F)ccc5[nH]4)c3c2)c1C [Example 2, Ethyl-{5-[3-(5-fluoro-1H-benzoimidazol-2-yl)-1H-indazol-5-yl]-4-methyl-pyridin-3-ylmethyl}-amine]	++ (Strong inhibition >75%)	− (Weak inhibition <50%)	− (Weak inhibition <50%)	++ (Strong inhibition >75%)	− (Weak inhibition <50%)	+ (Moderate inhibition 50–75%)	− (Weak inhibition <50%)	− (Weak inhibition <50%)	− (Weak inhibition <50%)	− (Weak inhibition <50%)	− (Weak inhibition <50%)	− (Weak inhibition <50%)	− (Weak inhibition <50%)
